# Data reported in patent US8722644B2, “Mixture of hyaluronic acid for treating and preventing peptic ulcer and duodenal ulcer” (Holy Stone Healthcare Co., Ltd., priority 2010, dated 2014).
# Tested on: rats that had Aspirin induced gastrointestinal ulcers
# Test: Treatment effects of PU98 on rats that had Aspirin induced gastrointestinal ulcers
# Assay type: in vivo
# Settings: 200 mg Aspirin intraperitoneal day 1 to day 3 after fasting; thirty rats; internal abdominal bleeding upon dissection
# From the text: PU98 (composition of binary molecular weight of HA that are 70% HA with an average Mw of 2000 KDa and 30% HA with an average Mw of 1000 KDa in PBS solution, the final concentration is 0.5%; i.e. 0.5 g HA in 100 c.c. PBS solution).
# Thirty eight-weeks-old SPF Sprague-Dawley male rats (BioLASCO Taiwan Co., Ltd.), were divided into 3 groups: study group (Aspirin/PU98), placebo group (Aspirin/PBS), control group (PBS), each group consisting of 10 rats with 2 rats housed per cage at the Animal Technology Institute Taiwan rodents room.
# Before animal experimentation, rats were first fasted for 24 hours or more. From day one (D1) of experimentation to day three (D3), rats were given 1 ml of Aspirin (200 mg/ml) through intraperitoneal administration.
# From day 4 to day 18, rats of the study group were given 1 ml of Aspirin (100 mg/ml) daily through intraperitoneal administration, they were also fed a 2 ml dosage of PU98 once every morning and afternoon.
# From day 4 to day 18, rats of the placebo group were given 1 ml of Aspirin (100 mg/ml) daily through intraperitoneal administration, however they were fed a 2 ml dosage of PBS (placebo) once every morning and afternoon. […]
# The present invention was analyzed by “student t test” to evaluate relationship between the study group, placebo group and control group.
compound,measurement,value
CC(=O)Oc1ccccc1C(=O)O [Aspirin],rats died on day 4 after Aspirin induction,11
